What was measured:
[1] = system: K-562 (chronic myelogenous leukemia); experiment: MTT-based viability assay, K-562; format: cell-based, human; settings: for IC50: Homo sapiens, K562, MTT, 48 h, read-out: IC50 K-562; for SI (selectivity index) K-562: IC50 Vero/IC50 cancer cells
Description: (§1) After incubation with the tested compounds, an MTT test was performed as described previously. Optical densities were measured at 570 nm using a BioTek microplate reader (BioTek Instruments, Inc., Winooski, VT, USA). All measurements were carried out in a minimum of three biological replicates.
(§2) . The IC50 values describing the half-maximal effective concentration of each tested compound were calculated and are summarized in Table 2. […].

MCF-7 (breast carcinoma) = experiment: MTT-based viability assay, MCF-7; format: cell-based, human; settings: for IC50: Homo sapiens, MCF7, MTT, 48 h, read-out: IC50 MCF-7; for SI (selectivity index) MCF-7: IC50 Vero/IC50 cancer cells
Description: as §1, §2

human CK2α = target: T1, human CK2α (Homo sapiens, UniProt P68400); experiment: P81 filter isotopic (radiometric) kinase assay, CK2 catalytic subunit; format: biochemical; settings: substrate peptide […], Ki from IC50 by Cheng–Prusoff
T1 construct: made in house
Description: (§3) The obtained compounds were tested for their inhibitory activity toward human CK2α, human CK2 holoenzyme, and PIM-1 using a P81 filter isotopic assay as described previously. […] The experimental data were fitted to the sigmoidal dose–response equation, i.e., (variable slope) Y = Bottom + (Top-Bottom)/(1 + 10^((LogIC50−X)∗HillSlope), in GraphPad Prism (Prism 9, v. 9.0.1).
(§4) Inhibition of the human CK2 catalytic subunit (CK2α), CK2 holoenzyme (CK2α2β2), and PIM-1 by the newly obtained compounds was evaluated using a radiometric assay (Table 1, Figure S2). The synthetic peptide […] was used as the substrate of CK2, and peptide […] was used as the substrate of PIM-1. The values of the inhibition constant (Ki) were calculated using the Cheng–Prusoff equation: Ki = IC50/(1 + [S]/Km).

[2] = target: T2, human CK2 holoenzyme (CK2α2β2) (Homo sapiens, UniProt P68400); experiment: P81 filter isotopic (radiometric) kinase assay, CK2 holoenzyme; format: biochemical; settings: substrate peptide […], Ki from IC50 by Cheng–Prusoff
T2 construct: made in house
Description: as §3, §4

Vero cells = experiment: MTT-based viability assay, non-cancerous Vero cells; format: cell-based, Cercopithecus aethiops; settings: Chlorocebus sabaeus, MTT, 48 h, read-out: IC50 Vero
Description: as §1, §2

PIM-1 = target: T3, PIM-1 (Homo sapiens, UniProt P11309); experiment: P81 filter isotopic (radiometric) kinase assay, PIM-1; format: biochemical; settings: substrate peptide […], Ki from IC50 by Cheng–Prusoff
T3 construct: made in house
Description: as §3, §4

[3] = system: CCRF-CEM (acute lymphoblastic leukemia); experiment: MTT-based viability assay, CCRF-CEM; format: cell-based, human; settings: for IC50: Homo sapiens, CCRF-CEM, MTT, 48 h, read-out: IC50 CCRF-CEM; for SI (selectivity index) CCRF-CEM: IC50 Vero/IC50 cancer cells
Description: as §1, §2

CK2 = target: CK2; parameters: method as in PMID 33807474; settings: Figure 1, representative CK2 inhibitors; cited from earlier work
PIM1 = target: PIM1; parameters: method as in PMID 23360763, PMID 24442476, PMID 34200807; settings: Figure 1, dual CK2/PIM-1 inhibitors; cited from earlier work
CK2-α = target: CK2-α; parameters: method as in PMID 23360763, PMID 24442476, PMID 34200807; settings: Figure 1, dual CK2/PIM-1 inhibitors; cited from earlier work

T1 sequence (P68400 whole entry): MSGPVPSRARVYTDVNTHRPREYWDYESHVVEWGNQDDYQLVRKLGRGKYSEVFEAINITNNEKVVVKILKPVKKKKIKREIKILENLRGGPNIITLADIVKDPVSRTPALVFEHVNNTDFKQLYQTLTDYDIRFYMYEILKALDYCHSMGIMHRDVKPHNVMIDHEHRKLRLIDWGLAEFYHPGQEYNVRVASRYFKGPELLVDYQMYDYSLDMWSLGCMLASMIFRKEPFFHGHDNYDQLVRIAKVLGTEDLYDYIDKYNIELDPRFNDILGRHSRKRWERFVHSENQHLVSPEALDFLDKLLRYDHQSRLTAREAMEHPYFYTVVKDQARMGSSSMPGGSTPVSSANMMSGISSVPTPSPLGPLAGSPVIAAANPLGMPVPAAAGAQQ
T2 sequence (P68400 whole entry): as above
T2 sequence (P67870 whole entry partner): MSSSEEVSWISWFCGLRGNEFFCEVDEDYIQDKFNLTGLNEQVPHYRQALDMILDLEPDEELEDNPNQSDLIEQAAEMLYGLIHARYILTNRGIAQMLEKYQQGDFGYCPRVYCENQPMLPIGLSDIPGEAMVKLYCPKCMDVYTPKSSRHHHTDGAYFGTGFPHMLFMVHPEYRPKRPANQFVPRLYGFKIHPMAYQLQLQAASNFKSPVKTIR
T3 sequence (P11309 whole entry): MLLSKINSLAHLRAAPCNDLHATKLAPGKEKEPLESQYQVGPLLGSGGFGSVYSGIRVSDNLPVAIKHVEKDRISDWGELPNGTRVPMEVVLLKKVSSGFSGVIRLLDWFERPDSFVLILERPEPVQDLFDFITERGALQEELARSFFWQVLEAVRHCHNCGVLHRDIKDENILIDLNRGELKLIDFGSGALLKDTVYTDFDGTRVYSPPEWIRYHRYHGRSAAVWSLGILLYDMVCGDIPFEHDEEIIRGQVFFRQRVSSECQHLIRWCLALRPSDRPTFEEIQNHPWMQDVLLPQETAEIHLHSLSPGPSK

Compound | IC50 [1] | SI (selectivity index) K-562 [1] | IC50 (MCF-7 (breast carcinoma)) | SI (selectivity index) MCF-7 (MCF-7 (breast carcinoma)) | Ki (human CK2α) | Ki [2] | IC50 (Vero cells) | Ki (PIM-1) | IC50 [3] | SI (selectivity index) CCRF-CEM [3] | Ki (CK2) | Ki (PIM1) | Ki (CK2-α)
OCCCNc1nc2c(Br)c(Br)c(Br)c(Br)c2[nH]1 [Compound 7, 3-[(4,5,6,7-Tetrabromo-1H-benzimidazol-2-yl)amino]propan-1-ol] | 33.7 ± 4.92 µM | 0.87 | 18.2 ± 0.3 µM | 1.62 | 0.156 µM | 0.114 µM | 29.46 ± 0.12 µM | 0.082 µM | 25.6 ± 0.54 µM | 1.15 | – | – | –
O=c1[nH]c2c(Br)c(Br)c(Br)c(Br)c2[nH]1 [Compound K32, 4,5,6,7-tetrabromo-2,3-dihydro-1H-1,3-benzodiazol-2-one] | – | – | – | – | – | – | – | – | – | – | 0.15 µM | – | –
OCC(O)CNc1nc2c(Br)c(Br)c(Br)c(Br)c2[nH]1 (racemic) [rac-11, 3-[(4,5,6,7-Tetrabromo-1H-benzimidazol-2-yl)amino]propane-1,2-diol] | 41.5 ± 8.45 µM | 1.00 | 17.2 ± 0.39 µM | 2.41 | 0.151 µM | 0.089 µM | 41.53 ± 0.1 µM | 0.073 µM | 33.8 ± 0.26 µM | 1.23 | – | – | –
CN(CCO)c1nc2c(Br)c(Br)c(Br)c(Br)c2[nH]1 [Compound 8, 2-[Methyl(4,5,6,7-tetrabromo-1H-benzimidazol-2-yl)amino]ethanol] | 40 ± 7.45 µM | 0.40 | 15.1 ± 0.39 µM | 1.06 | 0.256 µM | 0.072 µM | 16.1 ± 0.27 µM | 0.071 µM | 17.4 ± 0.27 µM | 0.92 | – | – | –
OCC(CO)Nc1nc2c(Br)c(Br)c(Br)c(Br)c2[nH]1 [Compound 10, 2-[(4,5,6,7-Tetrabromo-1H-benzimidazol-2-yl)amino]propane-1,3-diol] | 38.1 ± 5.56 µM | 0.66 | 16.6 ± 0.23 µM | 1.51 | 0.139 µM | 0.124 µM | 25.19 ± 0.1 µM | 0.093 µM | 24.47 ± 0.21 µM | 1.03 | – | – | –
C[C@@H](O)CNc1nc2c(Br)c(Br)c(Br)c(Br)c2[nH]1 [(R)-5, (2R)-1-[(4,5,6,7-tetrabromo-1H-benzimidazol-2-yl)amino]propan-2-ol] | 39.6 ± 8.11 µM | 0.71 | 16.1 ± 0.19 µM | 1.76 | 0.394 µM | 0.104 µM | 28.3 ± 0.43 µM | 0.089 µM | 22.31 ± 0.1 µM | 1.27 | – | – | –
C[C@H](O)CNc1nc2c(Br)c(Br)c(Br)c(Br)c2[nH]1 [(S)-5, (2S)-1-[(4,5,6,7-tetrabromo-1H-benzimidazol-2-yl)amino]propan-2-ol] | 39.3 ± 9.05 µM | 0.64 | 16.6 ± 0.3 µM | 1.52 | 0.271 µM | 0.167 µM | 25.2 ± 0.54 µM | 0.099 µM | 23.2 ± 4.01 µM | 1.11 | – | – | –
OC[C@H]1O[C@@H](n2cnc3c(Br)c(Br)c(Br)c(Br)c32)C[C@@H]1O [TDB (K164), 1-(β-D-2′-deoxyribofuranosyl)-4,5,6,7-tetrabromo-1H-benzimidazole] | – | – | – | – | – | – | – | – | – | – | – | 0.04 µM | –
4,5,6,7-tetrabromo-2,3-dihydro-1H-1,3-benzodiazol-2-one [Compound K37] | – | – | – | – | – | – | – | – | – | – | 0.07 µM | – | –
OC[C@H]1O[C@@H](n2cnc3cc(Cl)c(Cl)cc32)[C@H](O)[C@@H]1O [DRB, 5,6-dichloro-1-β-D-ribofuranosylbenzimidazole] | – | – | – | – | – | – | – | – | – | – | 23 µM | – | –
CC(O)CNc1nc2c(Br)c(Br)c(Br)c(Br)c2[nH]1 (racemic) [rac-5, 1-[(4,5,6,7-Tetrabromo-1H-benzimidazol-2-yl)amino]propan-2-ol] | 38.7 ± 8.08 µM | 0.58 | 16.9 ± 0.3 µM | 1.34 | 0.296 µM | 0.127 µM | 22.58 ± 0.13 µM | 0.064 µM | 21.7 ± 0.86 µM | 1.04 | – | – | –
Brc1c(Br)c(Br)c2[nH]cnc2c1Br [TBBi, 4,5,6,7-tetrabromo-1H-benzimidazole] | – | – | – | – | – | – | – | – | – | – | 0.3 µM | – | –
Cc1nc2c(Br)c(Br)c(Br)c(Br)c2n1CCCO [N^1-PrOH-2-MeTBBi, 3-(4,5,6,7-tetrabromo-2-methyl-1H-1,3-benzodiazol-1-yl)propan-1-ol] | – | – | – | – | – | – | – | – | – | – | – | 0.15 µM | 0.05 µM
CCN(CC)CC(O)CNc1nc2c(Br)c(Br)c(Br)c(Br)c2[nH]1 (racemic) [rac-9, 1-(Diethylamino)-3-[(4,5,6,7-tetrabromo-1H-benzimidazol-2-yl)amino]propan-2-ol] | 11.6 ± 2.85 µM | 1.03 | 10.8 ± 0.23 µM | 1.11 | 1.67 µM | 0.605 µM | 12 ± 0.21 µM | 0.267 µM | 13.6 ± 0.84 µM | 0.88 | – | – | –
